For one data set, the system named is MMP2. Put plainly: Gelatin zymography of MMP2 protein expression after siRNA transfection. To be noted: over a 72 hour period, zymography of culture media. The class given is cell-based, human. Here is the method:
FIG. 5. SiMMP2 suppresses MMP2 protein expression. […] However, throughout this period the MMP2 level in the siMMP2 treated cells is about 50% of the siRNA control cells (SCR). In FIG. 5A each left hand bar of the bar pairs reports the result with Scramble siRNA (indicated as “Scramble SiRNA” in the key) and the right hand bar reports the result in the presence of MMP2 specific siRNA (indicated as “MMP2 SiRNA” in the key).
Gelatinolytic activity of culture media was analyzed by electrophoresis under non-reducing conditions on a 7% SDS-polyacrylamide gel containing 0.5 mg/mL denatured collagen type I (gelatin; Sigma) as previously described by Gavrilovic J. et al. (Cell Regul. (1990) 1, pages 1003-14). After electrophoresis, gels were washed twice in 2.5% Triton-X 100 for 15 minutes and then incubated for 4 hours at 37° C. in 100 mM Tris-HCl (pH 7.9), 30 mM CaCl2, and 0.02% sodium azide. The gels were stained with Coomassie brilliant blue (Sigma), and the images were captured with a gel scanner.
Custom made MMP2 siRNA: sense 5′-[…]-3′ (SEQ. ID. NO: 1), antisense 5′-[…]-3′ (SEQ. ID. NO: 2) and siRNA negative control (universal scrambled siRNA) were used. Both siRNAs were purchased from Ambion Ltd. (Huntingdon, UK). FHL 124 cells were seeded onto 35-mm culture dishes at either 25,000 cells in 1.5 ml for protein extraction or as four patches of 5000 cells, for patch assay analysis. […]

Data set [1] has as its system MMP2 gene expression in FHL 124 cells. Put plainly: Quantitative real-time PCR of MMP2 gene expression after siRNA transfection. The class given is cell-based, human. Particulars: 100 nM siRNA. Here is the method:
FIG. 4. Validation of siRNA directed against specific inhibition of MMP2 for 24 hours using targeted siRNA techniques leads to a greater than 90% reduction in MMP2 gene expression. Furthermore, after 48 hours from initial MMP2 SiRNA transfection, MMP2 gene expression levels are still reduced by more than 80% in comparison with Scramble SiRNA controls. Each left hand bar of the bar pairs reports the result with Scramble siRNA (indicated as “Scramble SiRNA” in the key) and the right hand bar reports the result in the presence of MMP2 specific siRNA (indicated as “MMP2 SiRNA” in the key).
Total RNA was extracted from tissue and primary cultured cells (RNeasy micro kits; Qiagen, West Sussex, UK) in accordance with the manufacturer's instructions. In the initial step, RLT buffer (containing-mercaptoethanol) was added directly to phosphate buffered saline (PBS)-washed culture monolayers. Cultured cell lysates were removed with a cell scraper. Each sample was then transferred to an individual Eppendorf tube and passed through a needle and syringe. The remainder of the protocol was as described by the manufacturer and included a DNAse step. Quality control was maintained with an RNA analyzer (Bioanalyzer 2100; Agilent, West Lothian, UK) and an RNA lab chip (6000 Nano lab chip; Agilent) to ensure that 28S and 18S rRNA bands were clearly evident in total RNA samples. RNA was quantified with a spectrophotometer (ND-1000; NanoDrop, Wilmington, Del., USA). For the samples analyzed, the 260:280 ratio ranged from 1.8 to 2.2 (mean, 2.0). Where possible, total RNA was immediately used for cDNA generation or was briefly stored at −80° C. […]
Quantitative real-time PCR was used to analyze mRNA expression for all genes in FHL 124 cells (for a comprehensive description of MMPs and TIMPs primer/probe sets used, see Nuttall R. K. et al. (Mol Cancer Res (2003) 1, pages 333-345. Assuming 100% efficiency in the reverse transcription reaction, either 1 ng or 5 ng cDNA was used in real-time PCR reactions performed using a real-time PCR machine (ABI7700; Applied Biosystems). Reagent-based assays (Taq-Man Universal PCR Master Mix, No AmpErase UNG; Applied Biosystems) with all PCR reagents were used according to the manufacturer's instructions. The amount of amplification associated with priming from genomic DNA contamination was evaluated with control reverse transcription reactions containing all reagents without reverse transcriptase. […] The cycle number at which amplification entered the exponential phase (cycle threshold [CT]) was determined, and this number was used as an indicator for the amount of target RNA in each sample analyzed. […]
On the technique in general: Real-time PCR tracks product formation cycle by cycle.

Regarding “siMMP2: Custom made MMP2 siRNA: sense 5′-GGACACACUAAAGAAGAUGTT-3′, antisense 5′-CAUCUUCUUUAGUGUGUCCTT-3′, purchased from Ambion (chemistry not given here)”, the results for the “MMP2 protein level relative to Scrambled siRNA control” value in the data set on MMP2 and in the data set with MMP2 (listed as siRNA against MMP2) were “about 50%” and “approximately 50%”, respectively. Moreover, the “reduction in MMP2 gene expression” value in data set [1] (24 hours in transfection conditions, vs negative control siRNA) is on record as “greater than 90%”; in data set [1] (24 hours in transfection conditions, vs negative control siRNA, listed as siRNA against MMP2), 90%; in data set [1] (48 hours from transfection, vs Scramble siRNA controls), “more than 80%”; in data set [1] (48 hours from transfection, vs Scramble siRNA controls, listed as siRNA against MMP2), above 70%.

For the origin of these results see patent publication US20110236395A1, “TREATMENT OF FIBROTIC EYE DISORDERS USING AN MMP2 INHIBITOR” (UNIVERSITY OF EAST ANGLIA, priority 2008, published 2011).
